US8377884B2, “Variants of C-type natriuretic peptides” (Biomarin Pharmaceutical Inc., priority 2007, dated 2013)
Where two headings read alike, the source gives them in different places. Bridge positions count the residues as written; N and C are the ends. Square brackets hold non-standard residues; d marks the D form. Ends that are not written are not given here. Peptide text beside a SMILES is read from it. Cit = NC(=O)NCCC[C@H](N)C(=O)O; PEO24 = monodispersed, 1.2 kDa

Biological target: T1, NPR-B (Mus musculus, UniProt Q6VVW5)
T1 construct: Murine NIH3T3 cells express endogenously the CNP signaling receptor, NPR-B; endogenous in cells; host or cells: NIH3T3 (murine fibroblasts)
T1 sequence (Q6VVW5 17-1047): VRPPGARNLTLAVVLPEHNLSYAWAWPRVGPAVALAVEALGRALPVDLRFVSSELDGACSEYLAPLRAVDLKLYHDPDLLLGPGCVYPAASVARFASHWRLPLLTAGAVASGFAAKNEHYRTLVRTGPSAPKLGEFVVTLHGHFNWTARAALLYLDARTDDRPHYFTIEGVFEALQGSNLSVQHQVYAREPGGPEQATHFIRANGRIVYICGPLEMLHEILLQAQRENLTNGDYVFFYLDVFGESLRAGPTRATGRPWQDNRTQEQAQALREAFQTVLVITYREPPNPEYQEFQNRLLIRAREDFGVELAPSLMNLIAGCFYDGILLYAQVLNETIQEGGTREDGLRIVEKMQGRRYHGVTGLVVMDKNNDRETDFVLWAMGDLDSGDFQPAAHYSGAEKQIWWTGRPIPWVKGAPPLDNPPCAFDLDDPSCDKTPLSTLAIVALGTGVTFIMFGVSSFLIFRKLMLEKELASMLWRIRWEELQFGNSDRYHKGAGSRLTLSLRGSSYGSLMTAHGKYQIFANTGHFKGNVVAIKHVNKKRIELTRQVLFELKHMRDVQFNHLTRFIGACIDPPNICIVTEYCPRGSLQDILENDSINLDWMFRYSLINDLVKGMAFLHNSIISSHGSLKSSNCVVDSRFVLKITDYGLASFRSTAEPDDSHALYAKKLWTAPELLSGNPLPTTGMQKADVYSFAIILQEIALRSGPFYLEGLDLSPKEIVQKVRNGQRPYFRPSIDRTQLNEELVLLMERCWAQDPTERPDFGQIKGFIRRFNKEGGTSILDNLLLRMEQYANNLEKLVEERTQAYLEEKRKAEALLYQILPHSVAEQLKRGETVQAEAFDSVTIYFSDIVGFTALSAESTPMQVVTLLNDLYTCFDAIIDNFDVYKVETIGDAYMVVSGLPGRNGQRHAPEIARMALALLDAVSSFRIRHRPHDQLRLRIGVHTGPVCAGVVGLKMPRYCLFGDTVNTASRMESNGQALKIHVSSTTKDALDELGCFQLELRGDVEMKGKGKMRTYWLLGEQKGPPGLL
Assay: Stimulation of cGMP production in NIH3T3 cells
Type: cell-based, Murine
Conditions: for cGMP response relative to 1 uM CNP22 (%) at 0.01 µM: read-out: cGMP Response rel. to 1 uM CNP22, 10 nM; for cGMP response relative to 1 uM CNP22 (%) at 1 µM: read-out: cGMP Response rel. to 1 uM CNP22, 1 uM

[1] = NIH3T3 cells, 10 nM natriuretic peptide, normalized to cell number and cGMP production with 1 uM wtCNP22
[2] = NIH3T3 cells, 1 uM natriuretic peptide, normalized to cell number and cGMP production with 1 uM wtCNP22

| cGMP response relative to 1 uM CNP22 (%) at 0.01 µM [1] [%] | cGMP response relative to 1 uM CNP22 (%) at 1 µM [2] [%] | Molecule | cGMP response relative to 1 uM CNP22 (%) at 0.01 µM (NIH3T3, […]) [%] | cGMP response relative to 1 uM CNP22 (%) at 1 µM (NIH3T3, […]) [%] | also measured |
| --- | --- | --- | --- | --- | --- |
|  |  | CC[C@H](C)[C@@H]1NC(=O)[C@H](CCCNC(=N)N)NC(=O)[C@H](CC(=O)O)NC(=O)[C@H](CC(C)C)NC(=O)[C@H](CCCCN)NC(=O)[C@H](CC(C)C)NC(=O)CNC(=O)[C@H](Cc2ccccc2)NC(=O)[C@@H](NC(=O)CNC(=O)[C@H](CCCCN)NC(=O)[C@H](CO)NC(=O)[C@H](CC(C)C)NC(=O)CNC(=O)[C@H](CCC(N)=O)NC(=O)[C@H](CCC(N)=O)NC(=O)[C@H](CC(N)=O)NC(=O)[C@H](C)NC(=O)CNC(=O)[C@H](Cc2c[nH]cn2)NC(=O)[C@@H](NC(=O)[C@H](CC(=O)O)NC(=O)[C@H](Cc2c[nH]cn2)NC(=O)[C@H](CCC(=O)O)NC(=O)[C@H](Cc2c[nH]cn2)NC(=O)[C@@H]2CCCN2C(=O)[C@H](Cc2c[nH]cn2)NC(=O)[C@H](Cc2c[nH]cn2)NC(=O)[C@H](C)NC(=O)CN)[C@@H](C)O)CSSC[C@@H](C(=O)O)NC(=O)CNC(=O)[C@H](CC(C)C)NC(=O)CNC(=O)[C@H](CO)NC(=O)[C@H](CCSC)NC(=O)[C@H](CO)NC(=O)CNC1=O [CR] (H-GAHHPHEHDTHGANQQGLSKGCFGLKLDRIGSMSGLGC-OH; disulfide 22-38 (inferred); N-terminus and C-terminus assumed) | 14 ± 5 | 77 ± 12 |  |
|  |  | PEO24-R-CNP22, K4R: R-CNP22, K4R conjugated at the N-terminus to PEO24 (PEO24-RGLSRGCFGLKLDRIGSMSGLGC; disulfide 7-23 (inferred)) |  |  | cGMP Response rel. to 1 uM CNP22, 10 nM [1]: 15 ± 2; cGMP Response rel. to 1 uM CNP22, 1 uM [2]: 75 ± 12 |
| 9 | 57 | CC[C@H](C)[C@@H]1NC(=O)[C@H](CCCNC(=N)N)NC(=O)[C@H](CC(=O)O)NC(=O)[C@H](CC(C)C)NC(=O)[C@H](CCCCN)NC(=O)[C@H](CC(C)C)NC(=O)CNC(=O)[C@H](Cc2ccccc2)NC(=O)[C@@H](NC(=O)CNC(=O)[C@H](CCCCN)NC(=O)[C@H](CO)NC(=O)[C@H](CC(C)C)NC(=O)CNC(=O)[C@H](CCC(N)=O)NC(=O)[C@H](CCC(N)=O)NC(=O)[C@H](CC(N)=O)NC(=O)[C@H](C)NC(=O)CNC(=O)[C@H](CCCCN)NC(=O)[C@H](Cc2ccc(O)cc2)NC(=O)[C@H](CCCCN)NC(=O)[C@H](CCCNC(=N)N)NC(=O)[C@H](C)NC(=O)[C@H](CC(N)=O)NC(=O)[C@@H]2CCCN2C(=O)[C@H](Cc2c[nH]cn2)NC(=O)[C@H](CCC(=O)O)NC(=O)[C@H](CCC(N)=O)NC(=O)CN)CSSC[C@@H](C(=O)O)NC(=O)CNC(=O)[C@H](CC(C)C)NC(=O)CNC(=O)[C@H](CO)NC(=O)[C@H](CCSC)NC(=O)[C@H](CO)NC(=O)CNC1=O [CU] (H-GQEHPNARKYKGANQQGLSKGCFGLKLDRIGSMSGLGC-OH; disulfide 22-38 (inferred); N-terminus and C-terminus assumed) |  |  |  |
|  |  | CC[C@H](C)[C@@H]1NC(=O)[C@H](CCCNC(=N)N)NC(=O)[C@H](CC(=O)O)NC(=O)[C@H](CC(C)C)NC(=O)[C@H](CCCCN)NC(=O)[C@H](CC(C)C)NC(=O)CNC(=O)[C@H](Cc2ccccc2)NC(=O)[C@@H](NC(=O)CNC(=O)[C@H](CCCCN)NC(=O)[C@H](CO)NC(=O)[C@H](CC(C)C)NC(=O)CNC(=O)[C@H](CCC(N)=O)NC(=O)[C@H](CCC(N)=O)NC(=O)[C@H](CC(N)=O)NC(=O)[C@H](C)NC(=O)CNC(=O)[C@H](Cc2c[nH]cn2)NC(=O)[C@@H]2CCCN2C(=O)[C@H](Cc2c[nH]cn2)NC(=O)[C@H](CCC(N)=O)NC(=O)[C@H](CCC(=O)O)NC(=O)[C@H](Cc2c[nH]cn2)NC(=O)[C@H](CO)NC(=O)[C@H](Cc2c[nH]cn2)NC(=O)[C@H](Cc2c[nH]cn2)NC(=O)CN)CSSC[C@@H](C(=O)O)NC(=O)CNC(=O)[C@H](CC(C)C)NC(=O)CNC(=O)[C@H](CO)NC(=O)[C@H](CCSC)NC(=O)[C@H](CO)NC(=O)CNC1=O [CQ] (H-GHHSHEQHPHGANQQGLSKGCFGLKLDRIGSMSGLGC-OH; disulfide 21-37 (inferred); N-terminus and C-terminus assumed) | 16 | 95 |  |
|  |  | CC[C@H](C)[C@@H]1NC(=O)[C@H](CCCNC(=N)N)NC(=O)[C@H](CC(=O)O)NC(=O)[C@H](CC(C)C)NC(=O)[C@H](CCCCN)NC(=O)[C@H](CC(C)C)NC(=O)CNC(=O)[C@H](Cc2ccccc2)NC(=O)[C@@H](NC(=O)CNC(=O)[C@H](CCCNC(=N)N)NC(=O)[C@H](CO)NC(=O)[C@H](CC(C)C)NC(=O)CN)CSSC[C@@H](C(=O)O)NC(=O)CNC(=O)[C@H](CC(C)C)NC(=O)CNC(=O)[C@H](CO)NC(=O)[C@H](C(C)C)NC(=O)[C@H](CO)NC(=O)CNC1=O [AG] (H-GLSRGCFGLKLDRIGSVSGLGC-OH; disulfide 6-22 (inferred); N-terminus and C-terminus assumed) | 10 | 65 |  |
| 26 ± 26 | 86 ± 17 | CC[C@H](C)[C@@H]1NC(=O)[C@H](CCCNC(=N)N)NC(=O)[C@H](CC(=O)O)NC(=O)[C@H](CC(C)C)NC(=O)[C@H](CCCCN)NC(=O)[C@H](CC(C)C)NC(=O)[C@H](CO)NC(=O)[C@H](Cc2ccccc2)NC(=O)[C@@H](NC(=O)CNC(=O)[C@H](CCCNC(=N)N)NC(=O)[C@H](CO)NC(=O)[C@H](CC(C)C)NC(=O)CN)CSSC[C@@H](C(=O)O)NC(=O)CNC(=O)[C@H](CC(C)C)NC(=O)CNC(=O)[C@H](CO)NC(=O)[C@H](CCSC)NC(=O)[C@H](CO)NC(=O)CNC1=O [AB] (H-GLSRGCFSLKLDRIGSMSGLGC-OH; disulfide 6-22 (inferred); N-terminus and C-terminus assumed) |  |  |  |
| 6 | 33 | CC[C@H](C)[C@@H]1NC(=O)[C@H](CCCNC(=N)N)NC(=O)[C@H](CC(=O)O)NC(=O)[C@H](CC(C)C)NC(=O)[C@H](CCCNC(N)=O)NC(=O)[C@H](CC(C)C)NC(=O)CNC(=O)[C@H](Cc2ccccc2)NC(=O)[C@@H](NC(=O)CNC(=O)[C@H](CCCNC(=N)N)NC(=O)[C@H](CO)NC(=O)[C@H](CC(C)C)NC(=O)CN)CSSC[C@@H](C(=O)O)NC(=O)CNC(=O)[C@H](CC(C)C)NC(=O)CNC(=O)[C@H](CO)NC(=O)[C@H](CCSC)NC(=O)[C@H](CO)NC(=O)CNC1=O [BF] (H-GLSRGCFGL[Cit]LDRIGSMSGLGC-OH; disulfide 6-22 (inferred); N-terminus and C-terminus assumed) |  |  |  |
| 2 | 18 | CC[C@H](C)[C@@H]1NC(=O)[C@H](CCCNC(=N)N)NC(=O)[C@H](CC(=O)O)NC(=O)[C@H](CC(C)C)NC(=O)[C@H](CCCCN)NC(=O)[C@H](CC(C)C)NC(=O)CNC(=O)[C@H](Cc2ccc(O)cc2)NC(=O)[C@@H](NC(=O)CNC(=O)[C@H](CCCNC(=N)N)NC(=O)[C@H](CO)NC(=O)[C@H](CC(C)C)NC(=O)CN)CSSC[C@@H](C(=O)O)NC(=O)CNC(=O)[C@H](CC(C)C)NC(=O)CNC(=O)[C@H](CO)NC(=O)[C@H](CCSC)NC(=O)[C@H](CO)NC(=O)CNC1=O [Z] (H-GLSRGCYGLKLDRIGSMSGLGC-OH; disulfide 6-22 (inferred); N-terminus and C-terminus assumed) |  |  |  |
| 44 ± 8 | 95 ± 11 | CC[C@H](C)[C@@H]1NC(=O)[C@H](CCCNC(=N)N)NC(=O)[C@H](CC(=O)O)NC(=O)[C@H](CC(C)C)NC(=O)[C@H](CCCCN)NC(=O)[C@H](CC(C)C)NC(=O)CNC(=O)[C@H](Cc2ccccc2)NC(=O)[C@@H](NC(=O)CNC(=O)[C@H](CCCNC(=N)N)NC(=O)[C@H](CO)NC(=O)[C@H](CC(C)C)NC(=O)CNC(=O)[C@H](CCC(N)=O)NC(=O)[C@H](CCC(N)=O)NC(=O)[C@H](CC(N)=O)NC(=O)[C@H](C)NC(=O)CN)CSSC[C@@H](C(=O)O)NC(=O)CNC(=O)[C@H](CC(C)C)NC(=O)CNC(=O)[C@H](CO)NC(=O)[C@H](CCSC)NC(=O)[C@H](CO)NC(=O)CNC1=O [CH] (H-GANQQGLSRGCFGLKLDRIGSMSGLGC-OH; disulfide 11-27 (inferred); N-terminus and C-terminus assumed) |  |  |  |
